Where two headings read alike, the source gives them in different places.
Assays:
[1] = system: Staphylococcus aureus IAM 1011; test: Minimum growth-inhibition concentration (MIC), Staphylococcus aureus IAM 1011; type: cell-based; conditions: Mueller-Hinton agar, 18 to 24 hours at 37° C.
Description: (§1) The minimum inhibiting concentration(MIC) of the compound represented by the formula(I) and the compound represented by the formula(V) was measured according to the standard method of Japan Society of Chemotherapy against each of the following bacterial species:
(§2) Anti-bacterial activity of the compounds respectively produced in Examples 1, 2 and 3 was determined according to the standard method of Japanese Society of Chemotherapy as follows.
(§3) Each of the following bacterial strains was inoculated in Mueller-Hinton's culture medium and cultured for 18 to 48 hours at 37° C. to obtain a standard bacterial liquid containing 10^6 cells/ml.
(§4) Separately, agar plates were prepared by adding each of the solutions of each of the compounds respectively produced in Examples, 1, 2 and 3 at predetermined concentrations in amount of one ninth by weight to Mueller-Hinton's culture medium.

[2] = system: Pseudomonas aeruginosa IAM 1514; test: Minimum growth-inhibition concentration (MIC), Pseudomonas aeruginosa IAM 1514; type: cell-based; conditions: Mueller-Hinton agar, 18 to 24 hours at 37° C.
Description: as §1, §2, §3, §4

[3] = Stability to rat liver homogenate (S-9 mix): rate of maintaining the antibacterial activity; type: in vitro ADME; conditions: for remaining at 20 min: rat
Description: For verifying the stability of the compound represented by the formula (I), 7-beta-[2-(2-amino-4-thiazolyl)-2-methoxyiminoacetamindo]-3-(-2-amino-1,3,4-thiadiazoyl-5-thiomethyl)-3-cepheme -4-carboxyulic acid in living body of the host, the following model experiment was carried out.
(§5) As a metabolism-activating enzyme, a rat liver homogenate (S-9, manufactured by Oriental Yeast Co.) was used in the following composition(referred to as S-9 mix, hereinafter):
(§6) After mixing 0.1 ml of a solution of the compound to be tested with 0.9 ml of S-9 mix or 0.9 ml of 0.1 M phosphoric acid buffer solution, the mixture was subjected to shaking culture for 20 min at 37° C. to prepare a test reaction solution for use in the following experiment.
(§7) Staphylococcus aureus IAM 1011 was inoculated to Mueller-Hinton'culture medium and the inoculum was cultured for 18 hours at 37° C. and after adjusting the number of the bacterial cells to 10^8 /ml of the culture medium, 50 times by weight of the Mueller-Hinton agar culture medium were added to the cultured medium to prepare flat culture plates. After placing a penicillin-cup of 8 mm in diameter on each of the thus prepared flat culture plates, 0.1 ml of the above-mentioned test reaction solution was introduced into the penicillin cup, and after leaving the system for 2 hours at 4° C., the system was incubated for 18 hours at 37° C., and the diameter of the growth-inhibition circle around the cup on the culture plate was determined.
By applying each of the thus determined diameters of the respective growth-inhibition circles on a diagram preliminarily prepared to indicate the relationship between the diameter of the growth-inhibition circle and the concentration of the compound in the culture medium before carrying out the culture, the concentration of the compound in the culture medium in the presence of S-9 mix was obtained(referred to as C2). […]

Escherichia coli IFO = test: Effects on infectious disease (mice infected with Escherichia coli IFO); type: in vivo; conditions: orally 100 mg/kg just after and 4 hours after inoculation; 7 days
Description: After inoculating a group consisting of 20 mice with Escherichia coli IFO intraperitoneously to be infected, the compound represented by the formula(V) was orally administered to the mice just after and after 4 hours of inoculation at a dose rate of 100 mg/kg body weight, and after 7 days of the administration, the effectiveness of the compound was judged by observing the death rate of each group of mice by the infection.
In the same manner, after inoculating another group consisting of 20 mice with Escherichia coli IFO intraperitoneously to be infected, the compound represented by the formula(I) was orally administered thereto just after and after 4 hours of inoculation at the dose rate of 100 mg/kg body weight, and after 7 days of the administration, the effectiveness of the compound was judged by observing the rate of survival of the mice.

E. coli W 3636 = test: Minimum growth-inhibition concentration (MIC), E. coli W 3636; type: cell-based, Escherichia coli; conditions: Mueller-Hinton agar, 18 to 24 hours at 37° C.
Description: as §1, §2, §3, §4

E. coli IFO 12734 = test: Minimum growth-inhibition concentration (MIC), E. coli IFO 12734; type: cell-based, Escherichia coli; conditions: Mueller-Hinton agar, 18 to 24 hours at 37° C.
Description: as §1, §2, §3, §4

[4] = system: Serratia marcescens IAM 1223; test: Minimum growth-inhibition concentration (MIC), Serratia marcescens IAM 1223; type: cell-based; conditions: Mueller-Hinton agar, 18 to 24 hours at 37° C.
Description: as §1, §2, §3, §4

test bacterial species = test: Anti-bacterial activity (MIC) in general, all test species; type: cell-based; conditions: against the test bacterial species
Description: as §1
Escherichia coli IFO 12734
Staphylococcus aureus IAM 1011
Proteus vulgaris IAM 1025
Pseudomonas aeruginosa IAM 1514 and
Serratia marcescens IAM 1223

Escherichia coli [5] = test: Effect on the experimental infectious disease on mice; type: in vivo, Escherichia coli; ddY-strain SPF mice; conditions: orally 100 mg/kg, ddY-strain SPF mice, 1.4×10^8 cells E. coli i.p.
Description: To each of the two groups of ddY-strain SPF mice, 1.4×10^8 cells of Escherichia coli was intraperitoneously inoculated to be infected, and just after or after 4 hours of the inoculation, the compound represented by the formula (I) was orally administered at a dose rate of 100 mg/kg.

[6] = system: Proteus vulgaris IAM 1025; test: Minimum growth-inhibition concentration (MIC), Proteus vulgaris IAM 1025; type: cell-based; conditions: Mueller-Hinton agar, 18 to 24 hours at 37° C.
Description: as §1, §2, §3, §4

ICR-JCL mice = test: Acute mammalian toxicity (LD50, 7-day mortality); type: in vivo; conditions: autopsy after 7 days, dead and live mice
Description: (§8) Acute mammalian toxicity of the compound represented by the formula(I) and the compound represented by the formula(V) was investigated by orally or intraperitoneally administering a series of aqueous physiological saline solution containing each of the above-mentioned compounds to groups of ICR-JCL mice, and observing the toxic symptoms appearing on the mice including the mortality for 7 days. Then, from the cumulative mortality, LD50 values were calculated by Litchfield-Wilcoxon's graphical method.

[7] = Acute mammalian toxicity (LD50, 7-day mortality); type: in vivo; conditions: mouse, in vivo
Description: as §8

[8] = Stability in blood of living body: serum concentration after injection; type: in vivo, male Wistar rats; conditions: rat, iv, caudal vein, Wistar rats, read-out: Concentration in the serum specimen
Description: A solution of sodium salt (the product in Example 2) of the compound represented by the formula(I) in an aqueous physiological solution was injected into each of 5 healthy male Wistar rats (body weight of about 180 g) after 6 to 7 weeks of birth from the caudal vein by one shot method. The same procedure was carried out by using a solution of the sodium salt in a 1/15 M phosphoric acid buffer of pH of 7.0. After 30 min, 2 hours and 4 hours of the injection, the blood of the rate was collected from the cut carotid artery of the rat, and the collected blood was subjected to centrifugation for 15 min at 3000 rpm to obtain the three kinds of serum specimens (collected after 30 min, 2 hours and 4 hours after the injection).
Separately, flat culture plates were made by adding 0.05 % by weight of Escherichia coli IFO 12734 into Heart-infusion agar culture medium, and a penicillin cup of 8 mm in diameter was placed on the flat culture medium, and each of the serum specimen, each of the blood specimen, 1/15 M phosphoric acid buffer solution or a 50% acetone-phosphoric acid buffer solution was introduced into the cup. The thus prepared inoculant was left for 30 min to 1 hour at room temperature and incubated for a night at 37° C.
Then, the diameter of the growth-inhibition circle around the penicillin cup on each flat culture plate was determined, and according to the preliminarily prepared graph showing the relationship between the diameter of the growth-inhibition circle and the concentration of the sodium salt in the serum specimen, the blood specimen, 1/15 M phosphoric acid buffer solution and 50% acetone-phosphoric acid buffer solution, the concentration of the sodium salt in the serum specimen was obtained as: […]

Bacterioides sp. = system: Bacterioides sp.; design: species or system Bacterioides sp.; female ICR mice; conditions: mouse, in vivo, po, 100 mg/kg
Description: (§9) The above-mentioned pivaloyloxymethyl ester represented by the formula(V) was orally administered for two continued days at a daily dosage of 100 mg/kg body weight to each of five female ICR mice of a group after 6 weeks of birth. Each of the two fecal specimens respectively collected before and after one day of the administration was diluted with 100 times by weight of an anaerobic diluent(a phosphoric buffer solution) and was ground in a mortar, and 0.1 ml of the ground material was smeared on each of the following culture media for the following bacteria and the thus inoculated culture media were incubated under the following conditions. Thereafter, the number of the following bacteria was determined on each culture medium.

Pseudomonas aeruginosa = system: Pseudomonas aeruginosa; design: species or system Pseudomonas aeruginosa; female ICR mice; conditions: mouse, in vivo, po, 100 mg/kg
Description: as §9

Lactobacillus bifidus = system: Lactobacillus bifidus; design: species or system Lactobacillus bifidus; female ICR mice; conditions: mouse, in vivo, po, 100 mg/kg
Description: as §9

Streptococcus sp. = system: Streptococcus sp.; design: species or system Streptococcus sp.; female ICR mice; conditions: mouse, in vivo, po, 100 mg/kg
Description: as §9

Escherichia coli [9] = test: Number of bacterial cells in feces, E. coli; type: in vivo, Escherichia coli; female ICR mice; conditions: after 2 days oral 100 mg/kg; before: 6.4
Description: as §9

[10] = system: Staphylococcus aureus IAM 1011; test: Stability of the compound of formula (V): growth-inhibiting circle with/without S-9 mix; type: cell-based; conditions: formula (I) = 100
Description: as §5, §6, §7
The same test as above was carried on the compound represented by the formula(V). […]

Lactobacillus sp. = system: Lactobacillus sp.; design: species or system Lactobacillus sp.; female ICR mice; conditions: mouse, in vivo, po, 100 mg/kg
Description: as §9

Escherichia coli [11] = test: Activity against Escherichia coli before and after metabolism by rat liver homogenate; type: cell-based
Description: The same test as above was carried on the compound represented by the formula(V). The results obtained were compared to the results of the test (1) on the compound represented by the formula(I) according to the following criterion.
Taking the diameter of the growth-inhibiting circle due to the compound represented by the formula(I) at the same concentration as 100, and the ratio of the diameter of the growth-inhibiting circle due to the compound represented by the fomula(V) to the diameter of the growth-inhibiting circle due to the compound represented by the formula(I) is represented by the percentages as follows, and the respective signs are attributed to the respective percentage.

[12] = ip, read-out: LD50 (intraperitoneous)

SMILES | Minimum growth-inhibition concentration (MIC) on Staphylococcus aureus IAM 1011 [1] | Minimum growth-inhibition concentration (MIC) on Pseudomonas aeruginosa IAM 1514 [2] | Rate of survival (Escherichia coli IFO) | Minimum growth-inhibition concentration (MIC) on E. coli W 3636 (E. coli W 3636) | Minimum growth-inhibition concentration (MIC) on E. coli IFO 12734 (E. coli IFO 12734) | Minimum growth-inhibition concentration (MIC) on Serratia marcescens IAM 1223 [4] | Anti-bacterial activity (MIC), in words (test bacterial species) | Minimum growth-inhibition concentration (MIC) on Proteus vulgaris IAM 1025 [6] | Autopsy findings (ICR-JCL mice) | LD50 at 168 h [7, 12] [mg/kg] | LD50 at 168 h ([7]; po, read-out: LD50 (oral)) [mg/kg] | other results
CON=C(C(=O)N[C@@H]1C(=O)N2C(C(=O)O)=C(CSc3nnc(N)s3)CS[C@H]12)c1csc(N)n1 [Example 1, 7-beta-[2-(2-amino-4-thiazolyl)-2-methoxyiminoacetamido]-3-(2-amino-1,3,4-thiadiazolyl-5-thiomethyl)-3-cepheme-4-carboxylic acid] | 0.78 | 12.5 | over 55% | 0.2 | < 0.05 | 0.2 | strong and broad anti-bacterial activity | < 0.05 | No noticeable information | > 10000 | > 10000 | Stability to the action of rat liver homogenate, in words ([3]; S-9 mix): stable; remaining at 20 min ([3]; liver homogenate s-9 mix, S-9 mix, 20 min at 37° C., read-out: Rate of maintaining the antibacterial activity): 80%; Survival on the 7th day of infection (Escherichia coli [5]): more than 55%
CO/N=C(\C(=O)N[C@@H]1C(=O)N2C(C(=O)O)=C(COC(C)=O)CS[C@H]12)c1csc(N)n1 [CEFOTAX ®, reference compound] | 1.56 | 50 | – | 0.1 | < 0.05 | 0.2 | – | < 0.05 | – | – | – | concentration at 0.5 h ([8]; 30 min after injection): 7000 ng/mL; concentration at 2 h ([8]; 2 hours after injection): 2500 ng/mL; concentration at 4 h ([8]; 4 hours after injection): 400 ng/mL; remaining at 20 min ([3]; s9): 17%
CON=C(C(=O)N[C@@H]1C(=O)N2C(C(=O)OCOC(=O)C(C)(C)C)=C(CSc3nnc(N)s3)CS[C@H]12)c1csc(N)n1 [Example 3, pivaloyloxymethyl 7-beta-[2-(2-amino-4-thiazolyl) -2-methoxyiminoacetamido]-3-(2-amino-1,3,4,-thiadiazolyl-5-thiomethyl)-3-cepheme-4-carboxylate] | ≥ 100 | ≥ 100 | over 60% | 50 | 12.5 | ≥ 100 | not so small to verify the anti-bacterial activity | 12.5 | No noticeable information | > 10000 | > 10000 | log10 value of the number of bacterial cells/g of feces, Bacterioides sp. (Bacterioides sp.): 8.2 log10 of bacterial cells/g of; log10 value of the number of bacterial cells/g of feces, Pse. aeruginosa (Pseudomonas aeruginosa): < 3.0 log10 of bacterial cells/g of; log10 value of the number of bacterial cells/g of feces, Lact. bifidus (Lactobacillus bifidus): 8.4 log10 of bacterial cells/g of; log10 value of the number of bacterial cells/g of feces, Streptococcus sp. (Streptococcus sp.): 7.0 log10 of bacterial cells/g of; log10 value of the number of bacterial cells/g of feces, E. coli (Escherichia coli [9]): 6.5 log10 of bacterial cells/g of; Ratio of diameter of growth-inhibiting circle to that of formula (I), sign ([10]; added with S-9 mix): +++ (67 to 100); Ratio of diameter of growth-inhibiting circle to that of formula (I), sign ([10]; without addition of S-9 mix): ± (0 to 1); log10 value of the number of bacterial cells/g of feces, Lactobacillus sp. (Lactobacillus sp.): 8.9 log10 of bacterial cells/g of; Activity against Escherichia coli, in words (Escherichia coli [11]; after metabolized by the rat liver homogenate): active; Activity to Escherichia coli, in words (Escherichia coli [11]; compound itself, without S-9 mix): inactive

— US4681877A, “Pivaloyloxymethyl 7-β-[2-(2-amino-4-thiazolyl)-2-methoxyiminoacetamido]-3-(2-amino-1, 3-thiadiazolyl-5-thiomethyl)-3-cepheme-4-carboxylate and pharmaceutical composition containing the same” (Kureha Kagaku Kogyo Kabushiki Kaisha, priority 1982, dated 1987)
